Values after ≈ are worked out from the molar mass of the structure shown. Read-outs that look alike come from different tables or passages of the source.
Tests used:
[1] = system: A. baumannii HUMC1; assay: MIC by broth microdilution (CLSI), carbapenem-resistant clinical isolate HUMC1; type: cell-based, Acinetobacter baumannii
Experimental: (§1) Two A. baumannii isolates were used in this example: HUMC1 (BV374) (Spellberg/Luna Laboratory, University of Southern California, Los Angeles, Calif.) and UNT091-1 (BV378) (UNT Health Science Center, Fort Worth, Tex.). The HUMC1 isolate is a hyper-virulent drug-resistant clinical strain isolated from a blood-stream infection. […] The isolates were stored at −80° C. as 20% (v/v) glycerol cultures.
(§2) MICs were determined by the broth microdilution method following the guidelines of the Clinical Laboratory Standards Institute (CLSI) using RPMI supplemented with […] cationic-adjusted Muller Hinton broth (CA-MHB) as assay medium. To prepare the bacterial inocula, 3-5 colonies of bacterial strains from over-night growth on ChromAgar orientation plates (CHROMagar Cat. No. RT412) were suspended in 5 mL saline. The turbidity of the bacterial suspension was adjusted to 0.5 McFarland units (equal to an optical density at 610 nm (OD610) to 0.08-0.1). This suspension was diluted 200-fold in RPMI supplemented with 10% (v/v) FCS to reach a final concentration of […] colony forming units (CFU)/mL and was used to inoculate the microtiter plates.
(§3) Serial 2-fold dilutions of the antibiotics were prepared in a separate 96-well plate polypropylene U-bottom plate (Ratiolab Cat. No. 6018111) in RPMI supplemented with 10% (v/v) FCS at 10-fold of the final test concentrations and 10 μl of the dilutions were transferred to new 96-well polystyrene U-bottom microtiter plates with a parafilm plate cover.
(§4) The plates were then inoculated with 90 μL per well of the prepared bacterial suspensions in using a multichannel pipette (Eppendorf), with the first column containing 4 wells each for growth control (no antibiotic). […] The MIC was recorded as the lowest concentration of the compound that inhibited bacterial growth by visual inspection. MICs were determined at least in duplicates and in the case of variations, the higher values are provided.

[2] = system: A. baumannii UNT091; assay: MIC by broth microdilution (CLSI), carbapenem-resistant clinical isolate UNT091; type: cell-based, Acinetobacter baumannii
Experimental: as §1, §2, §3, §4

[3] = system: A. baumannii ACC00445; assay: Neutropenic sepsis mouse model (CD-1 mice, IP infection); type: in vivo; details: IV at 1 h and 5 h post-infection, 10 mg/kg
Excerpt: The CD-1 mice were IP infected with A. baumannii ACC00445 strain in the presence of […].

Compound | MIC ([1]; Acinetobacter baumannii, HUMC1, HUMC1, CA-MHB (Table 1), read-out: MIC) [µg/mL] | MIC ([1]; Acinetobacter baumannii, HUMC1, HUMC1, RPMI plus 10% FCS (Table 1), read-out: MIC) [µg/mL] | MIC ([1]; Acinetobacter baumannii, HUMC1, HUMC1 parental strain, RPMI + 10% FCS (Table 2), read-out: MIC) [µg/mL] | MIC ([2]; Acinetobacter baumannii, UNT091, UNT091, CA-MHB (Table 1), read-out: MIC) [µg/mL] | MIC ([2]; Acinetobacter baumannii, UNT091, UNT091, RPMI plus 10% FCS (Table 1), read-out: MIC) [µg/mL] | MIC ([2]; Acinetobacter baumannii, UNT091, UNT091 parental strain, RPMI + 10% FCS (Table 2), read-out: MIC) [µg/mL] | protection against sepsis [3] | MIC ([1]; HUMC1, CA-MHB (Table 1)) [µg/mL] | MIC ([1]; HUMC1, RPMI plus 10% FCS (Table 1)) [µg/mL] | MIC ([2]; UNT091, CA-MHB (Table 1)) [µg/mL] | MIC ([2]; UNT091, RPMI plus 10% FCS (Table 1)) [µg/mL]
CO[C@H]1/C=C/O[C@@]2(C)Oc3c(C)c(O)c4c(O)c(c(/C=N/N5CCN(C)CC5)c(O)c4c3C2=O)NC(=O)/C(C)=C\C=C\[C@H](C)[C@H](O)[C@@H](C)[C@@H](O)[C@@H](C)[C@H](OC(C)=O)[C@@H]1C [rifampin] | 16 (≈ 19.4 µM) | 16 | 32 | 8 (≈ 9.72 µM) | 16 | 2 | does not | – | – | – | –
gentamicin | – | – | – | – | – | – | – | >16 | >16 | >16 | >16

From patent publication US11833139B2 (priority 2019, dated 2023)
